# From patent US12622911B2, “Methods and compositions for the treatment of pulmonary fibrosis using volasertib” (Children's Hospital Medical Center, priority 2021, dated 2026)
# Columns and labels:
# [1] = test system: IPF fibroblasts; assay: ECM-associated gene transcripts in IPF fibroblasts by RT-PCR; type: cell-based, human; conditions: vehicle or volasertib for 16 hours, FIG. 16
# Experimental: FIG. 16. Inhibition of PLK1 using volasertib attenuates ECM gene expression. IPF fibroblasts were treated with vehicle or volasertib for 16 hours and ECM-associated gene transcripts Col1α, Col3α1, FN1, and αSMA) were measured using RT-PCR. *p<0.05.
# (§1) Pharmacological inhibition of PLK1 attenuates the WT1-MYCN-PLK1 axis. […] To determine in vivo therapeutic effects of volasertib, TGFα mice were treated simultaneously with volasertib (30 mg/kg; QD) and Dox for five days, a period that leads to activation of WT1, MYCN and PLK1 in fibroblasts. […] Together, in vivo studies have established that inhibiting PLK1 is sufficient to attenuate the WT1-MYCN-PLK1 axis involved in fibroblast activation and pulmonary fibrosis.
# [2] = test system: WT1-MYCN-PLK1 axis in IPF fibroblasts; assay: PLK1, MYCN and WT1 protein levels in IPF fibroblast lysates by western blot; type: cell-based, human; conditions: volasertib 1 μM for 48 hours, western blot normalized to GAPDH, FIG. 17
# Experimental: FIG. 17. Volasertib treatment attenuates the WT1-MYCN-PLK1 axis in IPF fibroblasts. IPF fibroblasts were treated with vehicle or volasertib (1 μM) for 48 hours and measured PLK1, MYCN and WT1 protein levels in cell lysates using western blots and normalized to GAPDH. *P<0.05.
# as §1
# [3] = test system: IPF fibroblasts; assay: CDK4 gene expression in IPF fibroblasts by RT-PCR; type: cell-based, human; conditions: vehicle or volasertib for 16 hours, FIG. 20
# [4] = test system: TGFα-induced pulmonary fibrosis; assay: TGFα-induced pulmonary fibrosis in TGFα mice on Dox, lung gene expression; type: in vivo; conditions: volasertib 30 mg/kg QD with Dox for five days
# Description: FIG. 18. In vivo inhibition of PLK1 with volasertib attenuates ECM gene expression during TGFα-induced pulmonary fibrosis.
# FIG. 19. In vivo inhibition of PLK1 with volasertib attenuates MYCN and PLK1 during TGFα induced pulmonary fibrosis.
# FIG. 21. In vivo inhibition with volasertib attenuates ECM gene expression during TGFα-induced pulmonary fibrosis. *P<0.05.
# as §1
# [5] = H&E stainings for toxicity in volasertib-treated TGFα mice; type: in vivo; conditions: at the doses tested (30 mg/kg QD, five days), data not shown
# Experimental: as §1
# [6] = test system: severe fibrotic lung disease; assay: Therapeutic efficacy against severe fibrotic lung disease in two alternative mouse models (TGFα transgenic, repeated bleomycin); type: in vivo; conditions: compared to FDA-approved nintedanib therapy
# Description: WT1-driven anti-apoptotic genes (BCL3, BCL2L1, etc.), MYCN, and PLK1 were previously unknown to have a role in the pathogenesis of lung scarring, in fibroproliferation, FMT, survival, and ECM production. […] A novel clinical application for volasertib in the area of pulmonary fibrosis may include volasertib therapy to prevent progression or reverse established fibrotic lung disease. Applicant's studies utilize a novel transgenic mouse model in which the pro-fibrotic growth factor TGFα is selectively and temporally overexpressed in the lung epithelium, resulting in progressive subpleural scarring, similar to the pattern seen in human IPF, and an alternative mouse model of fibrosis using repeated doses of bleomycin. Applicant's data provide compelling support that inhibiting the MYCN-PLK1 axis may be effective in arresting fibrotic lung remodeling, and may be used in patients with pulmonary fibrosis.
# [7] = target: PLK1 (Homo sapiens, UniProt P53350); conditions: cited from earlier work
# Sequence of PLK1 (P53350 whole entry, species assumed): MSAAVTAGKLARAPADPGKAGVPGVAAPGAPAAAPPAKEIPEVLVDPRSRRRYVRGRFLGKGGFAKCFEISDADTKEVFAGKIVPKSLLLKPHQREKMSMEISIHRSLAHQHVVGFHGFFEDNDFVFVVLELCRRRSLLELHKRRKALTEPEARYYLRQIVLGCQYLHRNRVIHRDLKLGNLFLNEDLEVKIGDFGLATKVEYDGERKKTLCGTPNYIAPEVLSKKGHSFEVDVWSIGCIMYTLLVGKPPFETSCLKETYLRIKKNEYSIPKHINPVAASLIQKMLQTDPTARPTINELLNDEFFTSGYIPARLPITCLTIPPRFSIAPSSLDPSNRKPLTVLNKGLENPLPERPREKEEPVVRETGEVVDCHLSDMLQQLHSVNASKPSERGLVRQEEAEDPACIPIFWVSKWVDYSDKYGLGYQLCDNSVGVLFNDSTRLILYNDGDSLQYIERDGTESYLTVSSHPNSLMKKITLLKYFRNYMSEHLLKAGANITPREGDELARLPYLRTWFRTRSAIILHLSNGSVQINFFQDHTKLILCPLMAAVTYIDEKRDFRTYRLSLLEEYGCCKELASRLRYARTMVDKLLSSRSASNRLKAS
structure (smiles),measurement,setting,value
"CC[C@@H]1C(=O)N(C)c2cnc(Nc3ccc(C(=O)N[C@H]4CC[C@H](N5CCN(CC6CC6)CC5)CC4)cc3OC)nc2N1C(C)C [volasertib, N-[trans-4-[4-(cyclopropylmethyl)-1-piperazinyl]cyclohexyl]-4-[[(7R)-7-ethyl-5,6,7,8-tetrahydro-5-methyl-8-(1-methylethyl)-6-oxo-2-pteridinyl]amino]-3-methoxy-benzamide]","ECM gene expression (Col1α, Col3α1, FN1, αSMA transcripts)",[1],sufficient to attenuate ECM gene expression
same,"MYCN, WT1 and PLK1 levels",[2],"sufficient to attenuate MYCN, WT1 and PLK1 levels"
same,CDK4 gene expression,[3],attenuates CDK4 gene expression
same,MYCN and PLK1 levels in lungs,[4]; FIG. 19,able to attenuate both MYCN and PLK1 levels
same,"ECM gene expression including Col1α1, Col3a1, and FN1","[4]; vs vehicle-treated fibrosis controls, FIG. 18",attenuated ECM gene expression
same,toxicity by H&E stainings,[5],no toxicity
same,therapeutic efficacy against severe fibrotic lung disease,[6],demonstrated therapeutic efficacy
same,binds and inhibits PLK1,[7],at nanomolar doses
